#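 The compound was tested at five concentrations on cells cultured in 96-well plates, with a 48-hour exposure period. Here, GI50 denotes the concentration required for 50% inhibition of growth.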 Activity calls are given as the source filed them. Rule as the data show it: active = GI50 up to about 1.1 µM and inactive = higher.
# Assays:
# Experiment in all cases: NCI tumour cell line growth inhibition, 48 h
# HOP-62 = test system: HOP-62
# SF-539 = test system: SF-539
# HL-60 = test system: HL-60
# UO-31 = test system: UO-31
# MOLT-4 = test system: MOLT-4
# SK-MEL-2 = test system: SK-MEL-2
# SK-MEL-5 = test system: SK-MEL-5
# NCI-H226 = test system: NCI-H226
# ACHN = test system: ACHN
# DU-145 = test system: DU-145
# A549 = test system: A549
# SW-620 = test system: SW-620
# RXF 393 = test system: RXF 393
# SR = test system: SR
# M14 = test system: M14
# NCI/ADR-RES = test system: NCI/ADR-RES
# MDA-MB-231 = test system: MDA-MB-231
# TK-10 = test system: TK-10
# HOP-92 = test system: HOP-92
# UACC-257 = test system: UACC-257
# HCT-15 = test system: HCT-15
# UACC-62 = test system: UACC-62
# HCT-116 = test system: HCT-116
# U-251 = test system: U-251
# HCC 2998 = test system: HCC 2998
# NCI-H460 = test system: NCI-H460
# PC-3 = test system: PC-3
# MDA-MB-435 = test system: MDA-MB-435
# OVCAR-5 = test system: OVCAR-5
# A498 = test system: A498
# OVCAR-4 = test system: OVCAR-4
# KM12 = test system: KM12
# BT-549 = test system: BT-549
# Malme-3M = test system: Malme-3M
# IGROV-1 = test system: IGROV-1
# MCF7 = test system: MCF7
# SF-268 = test system: SF-268
# SN12C = test system: SN12C
# COLO 205 = test system: COLO 205
# EKVX = test system: EKVX
# HT-29 = test system: HT-29
# MDA-N = test system: MDA-N
# SK-MEL-28 = test system: SK-MEL-28
# K562 = test system: K562
# SK-OV-3 = test system: SK-OV-3
# OVCAR-3 = test system: OVCAR-3
# SNB-19 = test system: SNB-19
# RPMI-8226 = test system: RPMI-8226
# LOX IMVI = test system: LOX IMVI
# NCI-H23 = test system: NCI-H23
# CAKI-1 = test system: CAKI-1
# SNB-75 = test system: SNB-75
# 786-0 = test system: 786-0
# SF-295 = test system: SF-295
# NCI-H522 = test system: NCI-H522
smiles,measurement,setting,value
O=C1c2ccccc2OCC12OC21C=CC(Cl)=CC1 (stereo not given),GI50,HOP-62,33.7 µM (inactive)
same,GI50,SF-539,52.4 µM (inactive)
same,GI50,HL-60,15.7 µM (inactive)
same,GI50,UO-31,29.6 µM (inactive)
same,GI50,MOLT-4,0.113 µM (active)
same,GI50,SK-MEL-2,21.7 µM (inactive)
same,GI50,SK-MEL-5,13.2 µM (inactive)
same,GI50,NCI-H226,30.5 µM (inactive)
same,GI50,ACHN,38.5 µM (inactive)
same,GI50,DU-145,14.4 µM (inactive)
same,GI50,A549,18.6 µM (inactive)
same,GI50,SW-620,29.4 µM (inactive)
same,GI50,RXF 393,24.9 µM (inactive)
same,GI50,SR,2.07 µM (inactive)
same,GI50,M14,33.5 µM (inactive)
same,GI50,NCI/ADR-RES,22.5 µM (inactive)
same,GI50,MDA-MB-231,22 µM (inactive)
same,GI50,TK-10,33.2 µM (inactive)
same,GI50,HOP-92,36.1 µM (inactive)
same,GI50,UACC-257,32.2 µM (inactive)
same,GI50,HCT-15,28.6 µM
same,GI50,UACC-62,27.3 µM (inactive)
same,GI50,HCT-116,18.9 µM (inactive)
same,GI50,U-251,17.3 µM (inactive)
same,GI50,HCC 2998,19.1 µM (inactive)
same,GI50,NCI-H460,20.3 µM (inactive)
same,GI50,PC-3,26.5 µM (inactive)
same,GI50,MDA-MB-435,20.1 µM (inactive)
same,GI50,OVCAR-5,31.8 µM (inactive)
same,GI50,A498,20.7 µM (inactive)
same,GI50,OVCAR-4,12.4 µM (inactive)
same,GI50,KM12,17.6 µM (inactive)
same,GI50,BT-549,37.9 µM (inactive)
same,GI50,Malme-3M,18.5 µM (inactive)
same,GI50,IGROV-1,42.9 µM (inactive)
same,GI50,MCF7,33.4 µM (inactive)
same,GI50,SF-268,35.5 µM (inactive)
same,GI50,SN12C,15.7 µM (inactive)
same,GI50,COLO 205,18 µM (inactive)
same,GI50,EKVX,18.7 µM (inactive)
same,GI50,HT-29,19.1 µM (inactive)
same,GI50,MDA-N,17 µM (inactive)
same,GI50,SK-MEL-28,28.4 µM (inactive)
same,GI50,K562,16.6 µM (inactive)
same,GI50,SK-OV-3,51.8 µM (inactive)
same,GI50,OVCAR-3,20.5 µM (inactive)
same,GI50,SNB-19,29.8 µM (inactive)
same,GI50,RPMI-8226,14.8 µM (inactive)
same,GI50,LOX IMVI,13.5 µM (inactive)
same,GI50,NCI-H23,16 µM (inactive)
Clc1ccc(Nc2nnc(CNc3ccc(-c4nnc(Nc5ccc(Cl)cc5)s4)cc3)s2)cc1,GI50,HOP-62,30.4 µM (inactive)
same,GI50,CAKI-1,42.6 µM (inactive)
same,GI50,UO-31,4.68 µM (inactive)
same,GI50,MOLT-4,19 µM (inactive)
same,GI50,SK-MEL-2,11.7 µM (inactive)
same,GI50,SK-MEL-5,24.9 µM (inactive)
same,GI50,NCI-H226,34.9 µM (inactive)
same,GI50,SNB-75,> 100 µM (inactive)
same,GI50,ACHN,20.2 µM (inactive)
same,GI50,DU-145,22.5 µM (inactive)
same,GI50,A549,16.1 µM (inactive)
same,GI50,SW-620,28.4 µM (inactive)
same,GI50,RXF 393,35.8 µM (inactive)
same,GI50,M14,22.8 µM (inactive)
same,GI50,NCI/ADR-RES,48.4 µM (inactive)
same,GI50,MDA-MB-231,25.8 µM (inactive)
same,GI50,TK-10,46.3 µM (inactive)
same,GI50,HOP-92,74.6 µM (inactive)
same,GI50,UACC-257,34 µM (inactive)
same,GI50,HCT-15,25.1 µM
same,GI50,UACC-62,21.2 µM (inactive)
same,GI50,HCT-116,12.5 µM (inactive)
same,GI50,U-251,24.2 µM (inactive)
same,GI50,HCC 2998,13.4 µM (inactive)
same,GI50,NCI-H460,15.2 µM (inactive)
same,GI50,PC-3,15 µM (inactive)
same,GI50,MDA-MB-435,28.1 µM (inactive)
same,GI50,OVCAR-5,23.6 µM (inactive)
same,GI50,A498,28.9 µM (inactive)
same,GI50,786-0,24.2 µM (inactive)
same,GI50,OVCAR-4,27.5 µM (inactive)
same,GI50,KM12,11 µM (inactive)
same,GI50,SF-295,24.9 µM (inactive)
same,GI50,BT-549,71.9 µM (inactive)
same,GI50,Malme-3M,52.5 µM (inactive)
same,GI50,IGROV-1,41.2 µM (inactive)
same,GI50,MCF7,17.9 µM (inactive)
same,GI50,SF-268,26.9 µM (inactive)
same,GI50,SN12C,47.8 µM (inactive)
same,GI50,COLO 205,20.2 µM (inactive)
same,GI50,EKVX,49.1 µM (inactive)
same,GI50,HT-29,11 µM (inactive)
same,GI50,MDA-N,18.2 µM (inactive)
same,GI50,SK-MEL-28,33.3 µM (inactive)
same,GI50,NCI-H522,12.8 µM (inactive)
same,GI50,K562,7.71 µM (inactive)
same,GI50,SK-OV-3,47.3 µM (inactive)
same,GI50,SNB-19,30.1 µM (inactive)
same,GI50,RPMI-8226,18.4 µM (inactive)
same,GI50,NCI-H23,39.3 µM (inactive)
